Assay results: US5763441A, “Compounds for the treatment of disorders related to vasculogenesis and/or angiogenesis” (Sugen, Inc., priority 1995, dated 1998)
pIC50: −log10 of the molar value. Where two headings read alike, the source gives them in different places.

Key:
FLK-1 receptor = biological target: T1, FLK-1 receptor (Mus musculus, UniProt P35918); assay: ELISA assay to measure kinase activity of FLK-1 receptor in FLK-1/NIH cells; format: cell-based, murine
T1 construct: expressed in transfected cells; host or cells: NIH3T3C7#3 cells (FLK-1 infected NIH3T3)
T1 sequence (P35918 20-1345): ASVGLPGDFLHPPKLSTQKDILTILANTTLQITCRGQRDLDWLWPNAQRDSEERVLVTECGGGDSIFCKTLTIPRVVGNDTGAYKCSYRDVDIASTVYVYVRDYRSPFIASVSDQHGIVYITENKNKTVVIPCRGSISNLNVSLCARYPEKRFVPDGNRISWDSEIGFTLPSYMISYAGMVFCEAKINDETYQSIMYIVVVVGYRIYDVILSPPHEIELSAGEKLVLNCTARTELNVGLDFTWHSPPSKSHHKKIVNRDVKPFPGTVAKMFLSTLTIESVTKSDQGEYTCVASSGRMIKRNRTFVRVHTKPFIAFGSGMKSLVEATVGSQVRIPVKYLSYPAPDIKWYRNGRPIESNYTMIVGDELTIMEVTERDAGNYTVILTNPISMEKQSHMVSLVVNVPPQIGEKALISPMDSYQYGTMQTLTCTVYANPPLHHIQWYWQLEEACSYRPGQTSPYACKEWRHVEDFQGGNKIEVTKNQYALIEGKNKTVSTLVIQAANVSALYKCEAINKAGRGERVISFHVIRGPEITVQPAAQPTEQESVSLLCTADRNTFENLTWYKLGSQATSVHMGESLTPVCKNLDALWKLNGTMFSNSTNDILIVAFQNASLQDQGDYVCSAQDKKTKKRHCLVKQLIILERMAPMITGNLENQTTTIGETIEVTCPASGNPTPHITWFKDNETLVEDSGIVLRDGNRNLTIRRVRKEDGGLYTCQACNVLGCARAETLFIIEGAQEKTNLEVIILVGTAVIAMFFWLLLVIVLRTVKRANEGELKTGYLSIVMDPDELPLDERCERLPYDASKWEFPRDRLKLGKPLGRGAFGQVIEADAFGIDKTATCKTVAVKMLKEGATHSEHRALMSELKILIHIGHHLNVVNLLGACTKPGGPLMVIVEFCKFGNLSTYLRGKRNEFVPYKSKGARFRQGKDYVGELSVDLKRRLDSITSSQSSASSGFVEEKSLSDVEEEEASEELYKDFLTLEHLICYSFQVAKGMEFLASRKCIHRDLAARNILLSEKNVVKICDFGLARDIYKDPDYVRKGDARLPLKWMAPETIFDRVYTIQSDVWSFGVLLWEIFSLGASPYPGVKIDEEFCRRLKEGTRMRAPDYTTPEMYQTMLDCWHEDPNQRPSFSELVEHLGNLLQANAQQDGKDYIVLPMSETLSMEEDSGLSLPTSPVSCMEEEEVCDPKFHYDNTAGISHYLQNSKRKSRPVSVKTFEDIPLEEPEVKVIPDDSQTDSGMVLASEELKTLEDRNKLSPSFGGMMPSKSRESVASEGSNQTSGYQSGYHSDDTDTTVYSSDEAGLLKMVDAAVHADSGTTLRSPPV
Method: ELISA Assay To Measure Kinase Activity Of FLK-1 Receptor In FLK-1/NIH Cells
An ELISA assay was conducted to measure the kinase activity of the FLK-1 receptor and more specifically, the inhibition or activiation of protein tyrosine kinase activity on the FLK-1 receptor.
k. NIH3T3C7#3 Cells (FLK-1 infected cells);
Protocol. The following protocol was used to conduct the ELISA Assay:
1. Coat Corning 96-well elisa plates with 1.0 ug per well Cappel Anti-rabbit IgG antibody in 0.1M Na2CO3 pH 9.6. Bring final volume to 150 ul per well. Coat plates overnight at 4° C. Plates can be kept up to two weeks when stored at 4° C.
2. Grow cells in 30 ml of Growth media 9DMEM. 2.0 mM L-Glutamine, 10% FBS) until confluent in 150 cm tissue culture dishes at 37° C., 5% CO2.
3. Harvest cells by tyrpsination and seed in Corning 25850 polystyrene 96-well roundbottom cell plates, 25.000 cells/well in 200 uL of growth media.
4. Grow cells at least one day at 37° C., 5% CO2.
5. Wash cells with D-PBS 1X.
6. Add 200 ul/well of starvation media (DMEM, 2.0 mM l-Glutamine, 0.1% FBS). Incubate overnight at 37° C., 5% CO2.
7. Dilute Compounds/Extracts 1:20 in polyproplyene 96 well plates using starvation media. Dilute dimethylsulfoxide 1:20 for use in control wells.
8. Remove starvation media from 96 well cell culture plates and add 162 ul of fresh starvation media to each well.
9. Add 18 ul of 1:20 diluted Compound/Extract dilution (from step #7) to each well plus the 1:20 dimethylsulfoxide dilution to the control wells (+/-VEGF), for a final dilution of 1:200 after cell stimulation. Final dimethylsulfoxide is 0.5%. Incubate the plate at 37° C., 5% CO2 for two hours.
10. Remove unbound antibody from Elisa plates by inverting plate to remove liquid. Wash 3 times with TBSW+0.5% Ethanolamine, pH 7.0. Pat the plate on a paper towel to remove excess liquid and bubbles.
11. Block plates with TBSW+0.5% Ethanolamine, pH 7.0. 150 ul per well. Incubate plate thirty minutes while shaking on a microtiter plate shaker.
12. Wash plate 3 times as described in step 10.
13. Add 0.5 ug/well affinity purified anti-flk-1 polyclonal rabbit antiserum. Bring final volume to 150 ul/well with TBSW+0.5k Ethanolamine pH 7.0. Incubate plate for thirty minutes while shaking.
14. Add 180 μl starvation medium to the cells and stimulate cells with 20 ul/well 10.0 mM Sodium Ortho Vanadate and 500 ng/ml VEGF (resulting in a final concentration of 1.0 mM Sodium Ortho Vanadate and 50 ng/ml VEGF per well) for eight minutes at 37° C., 5% CO2. Negative control wells receive only starvation medium.
15. After eight minutes, media are removed from the cells and washed one time with 200 ul/well PBS.
16. Lyse cells in 150 ul/well HNTG while shaking at room temperature for five minutes. HNTG formulation includes sodium ortho vanadate, sodium pyro phosphate and EDTA.
17. Wash Elisa plate three times as described in step 10.
18. Transfer cell lysates from the cell plate to elisa plate and incubate while shaking for two hours. To transfer cell lysate pipette up and down while scrapping the wells.
19. Wash plate three times as described in step 10.
20. Incubate Elisa plate with 0.02 ug/well UB40 in TBSW+05% ethanolamine. Bring final volume to 150 ul/well. Incubate while shaking for 30 minutes.
21. Wash plate three times as described in step 10.
22. Incubate elisa plate with 1:10,000 diluted EIA grade Goat anti-mouse IgG conjugated horseradish peroxidase in TBSW+0.5% ethanolamine, pH 7.0. Bring final volume to 150 ul/well. Incubate while shaking for thirty minutes.
23. Wash plate as described in step 10.
24. Add 100 ul of ABTS/H202 solution to well. Incubate ten minutes while shaking.
25. Add 100 ul of 0.2M HCL for 0.1M HCL final to stop the colordevelopment reaction. Shake 1 minute at room temperature. Remove bubbles with slow stream of air and read the ELISA plate in an ELISA plate reader at 410 nm.

Calu-6 = assay: Tumor xenograft growth inhibition, Calu-6 (lung); format: in vivo, human
Text: The ability of one of the compounds of the present invention, leflunomide (Compound 40), to inhibit ovarian, melanoma, prostate, lung and mammary tumor cell lines established as SC xenografts was examined. […]
The tumor cells were implanted subcutaneously into the indicated strains of mice. Treatment was initiated on day 1 post implantation unless otherwise indicated (e.g. treatment of the SCID mouse related to the A375 melanoma cell line began on Day 9). Eight (8) to ten (10) mice comprised each test group.
Animals. Female athymic mice (BALB/c, nu/nu), BALB/c mice, Wistar rats and Fisher 344 rats were obtained from Simonsen Laboratories (Gilroy, Calif.). Female A/I mice were obtained from Jackson Laboratory (Bar Harbor, Me.). DA rats were obtained from B&K Universal, Inc. (Fremont, Calif.). Athymic R/Nu rats, DBA/2N mice, and BALB/c mice were obtained from Harlan Sprague Dawley (Indianapolis, Ind.). Female C57BL/6 mice were obtained from Taconic (Germantown, N.Y.). All animals were maintained under clean-room conditions in Micro-isolator cages with Alpha-dri bedding. They received sterile rodent chow and water ad libitum.
Subcutaneous Xenograft Model. Cell lines were grown in appropriate medium as described (See Section 6). Cells were harvested at or near confluency with 0.05% Trypsin-EDTA and pelleted at 450×g for 10 min. Pellets were resuspended in sterile PBS or media (without FBS) to a suitable concentration indicated in the Figure legends and the cells were implanted into the hindflank of mice. Tumor growth was measured over 3 to 6 weeks using venier calipers tumor volumes were calculated as a product of length x width x height unless otherwise indicated. P values were calculated using the Students' t-test. su101 in 50-100 uL excipient (dimethylsulfoxide, PBTE, PBTE6C:D5W, or PBTE:D5W) was delivered by IP injection at concentrations indicated in the Figure legends.

[1] = FLK-1R ELISA, VEGF-stimulated FLK-1/NIH cells

Structure (SMILES)	pIC50 (FLK-1 receptor)	also measured
N#CC(C(=O)Nc1cccc(C(F)(F)F)c1)C(=S)Nc1ccccc1Cl (stereo not drawn) [Compound 25, N-(2-chlorophenyl)-2-cyano-2-(N-3-trifluorophenylamino-carbonyl)-thioacetamide]	5.07	
CC1c2nc3ccccc3c(=O)n2C(c2ccc(O)cc2)N1Cc1ccccc1 (stereo not drawn) [Compound 27]	5.47	
N#C/C(=C\c1ccc(O)c(O)c1)C(=O)NCCNC(=O)/C(C#N)=C/c1ccc(O)c(O)c1 [Compound 7]		pIC50 (FLK-1 receptor; [1]): 4.43
N#C/C(=C\c1ccc(O)c(O)c1)C(=O)NCCCCNC(=O)/C(C#N)=C/c1ccc(O)c(O)c1 [Compound 8, (E,E)-2-[[4-[[1-cyano-2-(3,4-dihydroxyphenyl)ethenyl]carbonylamino]-n-butyl]aminocarbonyl]-3-(3,4-dihydroxyphenyl)acrylonitrile]	4.97	
N#CC(C#N)=Cc1cc(O)c(O)c(I)c1 [Compound 2, (E)-2-cyano-3-(3-iodo-4,5-hydroxyphenyl)acrylonitrile]		inhibition, CALU-6 (in words) (Calu-6; 20 mg/kg/day): no detectable inhibition; inhibition, CALU-6 (in words) (Calu-6; 40 mg/kg/day): no detectable inhibition
N#C/C(=C\c1cc(O)c(O)c(Br)c1)S(=O)(=O)/C(C#N)=C/c1cc(O)c(O)c(Br)c1 [Compound 12, (E)-2-[1-cyano-2-(5-bromo-3,4-dihydroxyphenyl)ethenylsulfonyl]-3-(3-bromo-4,5-dihydroxyphenyl)acrylonitrile]	5.15	inhibition, CALU-6 (in words) (Calu-6; 20 mg/kg/day): no detectable inhibition
Cc1cc2ncc(Nc3ccc(Cl)c(Cl)c3)nc2cc1C [Compound 17, 2-(3,4-dichlorophenylamino)-6,7-dimethylquinoxaline]	4.82	
N#CCS(=O)(=O)/C(C#N)=C/c1cc(O)c(O)c(Br)c1 [Compound 26, (E)-2-cyanomethylsufonyl-3-(3-bromo-4,5-dihydroxyphenyl)acrylonitrile]	4.96	
Cc1ccc(Sc2ncnc3ccc(C)cc23)cc1 [Compound 20]	4.75	
COc1cc2nc(Cl)nc(Nc3cccc(Cl)c3)c2cc1OC [Compound 21, 2-chloro-4-(3-chlorophenylamino)-6,7-dimethoxyquinazoline]	5.00	
Cc1cc2ncc(Nc3ccc(I)cc3)nc2cc1C [Compound 13, 2-[(4-iodophenyl)amino]-6,7-dimethyl quinoxaline]	4.98	
Cc1ccc2ncnc(Nc3cccc(O)c3)c2c1 [Compound 16, 4-(3-hydroxyphenylamino)-6-methylquinazoline]	4.45	
N#C/C(=C\c1ccc(O)c(O)c1)S(=O)(=O)/C(C#N)=C/c1ccc(O)c(O)c1 [Compound 9]		pIC50 (FLK-1 receptor; [1]): 4.56
Oc1cccc(Nc2ncnc3ccccc23)c1 [Compound 18, 4-(3-hydroxyphenylamino)-quinazoline]	4.46	
Cc1cc2ncc(Nc3cccc(Cl)c3)nc2cc1C [Compound 28, 2-(3-chlorophenylamino)-6,7-dimethylquinoxaline]	4.80	
N#CC(C#N)=NNc1cccc(Cl)c1 [Compound 22]	5.64	
N#C/C(=C\c1cc(O)c(O)c(I)c1)C(=O)NCc1ccccc1 [Compound 6, (E)-2-(benzylaminocarbonyl)-3-(3-iodo-4,5-dihydroxyphenyl)acrylonitrile]	4.67	
CCCNc1nc2ccccc2nc1Cl [Compound 19, 2-(n-propylamino)-3-chloroquinoxaline]	4.59	
CC(C)(C)c1cc(/C=C(/C#N)c2[nH]nc(N)c2C#N)cc(C(C)(C)C)c1O [Compound 4, (E)-2-[(3-amino-4-cyano)pyrazo-5-yl]-3-(3,5-di-t-butyl-4-hydroxyphenyl)acrylonitrile]	5.05	inhibition, CALU-6 (in words) (Calu-6; 20 mg/kg/day): no significant inhibition
N#C/C(=C\c1cc(O)c(O)c(I)c1)C(=O)NCCCc1ccccc1 [Compound 3]		pIC50 (FLK-1 receptor; [1]): 5.31
COC(=O)c1ccc(NCc2cc(O)ccc2O)cc1 [Compound 24, N-(2,5-dihydroxylbenzyl)-4-methoxycarbonylaniline]	4.54	
CC(C)(C)c1cc(/C=C(\C#N)C(N)=S)cc(C(C)(C)C)c1O [Compound 1, (E)-2-aminothiocarbonyl-3 (3,5-di-t-butyl-4-hydroxyphenyl)acrylonitrile]		pIC50 (FLK-1 receptor; FLK-1R ELISA, VEGF-stimulated FLK-1/NIH cells, read-out: IC50): 6.10
N#C/C(=C\c1ccc2[nH]ccc2c1)C(=O)c1ccc(O)c(O)c1 [Compound 10, (E)-3-(indol-5-yl)-2-(3,4-dihydroxyphenylcarbonyl)acrylonitrile]	4.75	
Cc1cc2ncc(-c3ccc(O)c(O)c3)nc2cc1C [Compound 14, 2-(3,4-dihydroxyphenyl) -6,7-dimethylquinoxaline]	5.03	
c1ccc(-c2cnc3cc4ccccc4cc3n2)cc1 [Compound 23, 2-phenyl-1,4-diaza-anthracene]	5.36	inhibition, CALU-6 (Calu-6; 20 mg/kg/day): 41%
CC(C)c1cc(/C=C(\C#N)C(=S)NCCCc2ccccc2)cc(C(C)C)c1O [Compound 11, (E)-2-[3-phenyl-n-propylaminothiocarbonyl]-3-(3,5-diisopropyl-4-hydroxyphenyl)acrylonitrile]	5.01	
